Calls of active or inactive are those of the source. The rule behind the calls is not given here.
Legend:
[1] = target: T1, GABA-A receptor; alpha-1/beta-2/gamma-2 (Homo sapiens, UniProt P14867+P18507+P47870); assay: (§1) Activation of recombinant human GABA receptor alpha1beta2gamma2 expressed in CHO cells in presence of GABA and measured for 120 secs by FMP dye based FLIPR assay; assay type: cell-based
T1 sequence (P14867 whole entry): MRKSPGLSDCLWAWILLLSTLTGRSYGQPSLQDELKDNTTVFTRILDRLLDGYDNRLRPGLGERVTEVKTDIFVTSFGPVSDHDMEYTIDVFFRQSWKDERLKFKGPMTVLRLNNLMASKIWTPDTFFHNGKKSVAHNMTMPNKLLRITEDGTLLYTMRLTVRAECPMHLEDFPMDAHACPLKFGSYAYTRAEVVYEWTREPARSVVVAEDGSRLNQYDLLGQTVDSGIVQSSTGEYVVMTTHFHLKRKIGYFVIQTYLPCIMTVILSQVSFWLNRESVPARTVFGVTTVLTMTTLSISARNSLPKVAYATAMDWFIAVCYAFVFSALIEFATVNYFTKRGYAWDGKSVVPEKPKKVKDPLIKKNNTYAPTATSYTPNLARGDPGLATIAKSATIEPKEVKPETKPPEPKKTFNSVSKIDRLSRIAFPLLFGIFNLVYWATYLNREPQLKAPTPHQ
T1 sequence (P47870 whole entry): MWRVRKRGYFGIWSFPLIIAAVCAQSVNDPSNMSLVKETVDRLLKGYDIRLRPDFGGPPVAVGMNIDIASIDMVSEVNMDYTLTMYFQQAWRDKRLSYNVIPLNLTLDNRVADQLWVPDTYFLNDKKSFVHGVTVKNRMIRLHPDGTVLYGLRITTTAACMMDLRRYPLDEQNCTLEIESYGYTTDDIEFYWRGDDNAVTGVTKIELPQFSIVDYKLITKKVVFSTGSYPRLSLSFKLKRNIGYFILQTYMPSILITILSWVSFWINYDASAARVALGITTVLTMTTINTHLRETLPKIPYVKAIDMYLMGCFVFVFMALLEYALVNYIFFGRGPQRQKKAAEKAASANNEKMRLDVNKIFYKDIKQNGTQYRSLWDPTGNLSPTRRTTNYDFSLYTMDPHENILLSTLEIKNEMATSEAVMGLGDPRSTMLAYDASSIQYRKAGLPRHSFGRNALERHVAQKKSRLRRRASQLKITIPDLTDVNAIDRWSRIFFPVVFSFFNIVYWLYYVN
T1 sequence (P18507 whole entry): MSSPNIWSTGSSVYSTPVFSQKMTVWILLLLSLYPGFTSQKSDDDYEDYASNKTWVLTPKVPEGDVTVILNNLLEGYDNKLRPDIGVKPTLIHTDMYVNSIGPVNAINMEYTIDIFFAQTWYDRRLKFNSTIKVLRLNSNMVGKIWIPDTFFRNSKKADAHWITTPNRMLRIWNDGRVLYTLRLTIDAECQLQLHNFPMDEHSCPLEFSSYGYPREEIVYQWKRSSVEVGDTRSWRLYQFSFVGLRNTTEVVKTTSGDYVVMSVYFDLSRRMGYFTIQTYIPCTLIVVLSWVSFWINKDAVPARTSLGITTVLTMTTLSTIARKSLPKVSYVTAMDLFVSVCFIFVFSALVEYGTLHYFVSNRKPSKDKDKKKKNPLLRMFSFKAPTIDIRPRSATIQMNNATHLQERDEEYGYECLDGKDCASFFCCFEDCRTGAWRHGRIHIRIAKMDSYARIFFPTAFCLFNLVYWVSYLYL

[2] = target: T2, GABA-A receptor; alpha-1/beta-2/gamma-2 (Homo sapiens) (UniProt P14867+P47870+P18507); assay: as §1; assay type: cell-based
[3] = target: T2, GABA-A receptor; alpha-1/beta-2/gamma-2 (Homo sapiens); assay: Activation of recombinant human GABA receptor alpha1beta2gamma2 expressed in CHO cells and measured for 120 secs by FMP dye based FLIPR assay; assay type: cell-based
[4] = Neurotoxicity in ip dosed Kunming mouse assessed as reduction in equilibrium measured after 30 mins by rotarod test; assay type: toxicity, organism-based; conditions: in vivo
[5] = species on record: Mus musculus; assay: Inhibition of sodium channel in C57BL/6 mouse primary cortical neurons at 10 uM by manual patch clamp electrophysiology method
[6] = species on record: Mus musculus; assay: Inhibition of sodium channel in C57BL/6 mouse Primary cortical neurons at 100 uM by manual patch clamp electrophysiology method
[7] = test system: Mus musculus; assay: Anticonvulsant activity in Kunming mouse assessed as reduction in ScPTZ-induced seizure at 300 mg/kg, ip administered before 30 mins of ScPTZ stimulation; assay type: functional, organism-based
[8] = test system: Cortical neurone; assay: Antiepileptic actvity in C57BL/6 mouse Primary cortical neuron assessed as reduction in 4-AP-induced excitability measured for 8 mins by Fluo-8/AM staining based FLIPR assay; assay type: functional, cell-based; conditions: C57BL/6, Cortical neurone
[9] = test system: Mus musculus; assay: Anticonvulsant activity in Kunming mouse assessed as reduction in ScPTZ-induced seizure at 100 mg/kg, ip administered before 30 mins of ScPTZ stimulation; assay type: functional, organism-based
[10] = test system: Mus musculus; assay: Anticonvulsant activity in Kunming mouse assessed as reduction in MES-induced seizure at 30 to 300 mg/kg, ip measured after 30 mins; assay type: functional, organism-based
[11] = test system: Mus musculus; assay: Anticonvulsant activity in Kunming mouse assessed as reduction in ScPTZ-induced seizure at 30 mg/kg, ip administered before 30 mins of ScPTZ stimulation; assay type: functional, organism-based
[12] = target: T1, GABA-A receptor; alpha-1/beta-2/gamma-2; assay: Positive allosteric modulation of recombinant human GABA receptor alpha1beta2gamma2 expressed in CHO cells at 30 uM in presence of GABA and measured for 120 secs by FMP dye based FLIPR assay (reference value: 0.25 +/- 0.03 uM); assay type: cell-based
[13] = test system: Mus musculus; assay: Anticonvulsant activity in ip dosed Kunming mouse assessed as reduction in ScPTZ-induced seizure administered before 30 mins of ScPTZ stimulation; assay type: functional; conditions: 0.5 h
[14] = Protective index, ratio of TD50 for neurotoxicity in ip dosed Kunming mouse to ED50 for anticonvulsant activity in ip dosed Kunming mouse; assay type: toxicity, organism-based; conditions: in vivo, read-out: Ratio TD50/ED50

With Cc1ccc(-c2nc3[nH]c(Cc4ccccc4)cc(=O)n3n2)cc1 the EC50 [1] was 12000 nM, the Activity [2] was “Dose-dependent effect” and the Activity [3] was “inactive”. For the same compound, the TD50 at 0.5 h [4] was 372 mg/kg, the inhibition [5] was “inactive” and the inhibition [6] was “Active”. The Activity [7] was “Active”, the IC50 [8] was 334 nM and the Activity [9] was “Active”. For the same compound, the Activity [10] was “inactive”, the Activity [11] was “Active” and the EC50 [12] was 240 nM. The ED50 [13] was 41 mg/kg and the selectivity ratio [14] was 9.09.
